From patent publication US8188135B2, “Compounds as cannabinoid receptor ligands” (priority 2008, dated 2012)

What was measured:
[1] = target: T1, rat CB2 (Rattus norvegicus, UniProt Q9QZN9); assay: rat CB2 cyclase functional assay (HitHunter cAMP); format: cell-based; set-up: expressed in transfected cells; host or cells: HEK; details: rat CB2 cyclase (EC50, nM), HEK cells, forskolin 18 μM
T1 sequence (Q9QZN9 1-360): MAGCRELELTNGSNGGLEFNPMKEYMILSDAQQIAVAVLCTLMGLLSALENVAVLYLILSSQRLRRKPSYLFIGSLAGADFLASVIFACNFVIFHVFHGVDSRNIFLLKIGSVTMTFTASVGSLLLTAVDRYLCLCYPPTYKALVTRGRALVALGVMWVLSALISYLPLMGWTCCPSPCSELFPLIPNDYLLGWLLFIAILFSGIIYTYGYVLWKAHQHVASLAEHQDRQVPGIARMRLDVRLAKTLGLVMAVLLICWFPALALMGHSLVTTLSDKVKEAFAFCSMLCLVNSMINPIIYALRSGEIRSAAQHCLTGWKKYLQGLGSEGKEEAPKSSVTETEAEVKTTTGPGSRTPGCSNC
Procedure, shortened: (§1)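 HEK cells expressing rat CB1 or CB2, 10,000 cells/well, incubated 20 min at 37° C with test ligands plus forskolin (37 μM for CB1, 18 μM for CB2) in DPBS with 0.01% BSA. cAMP read by enzyme-complementation luminescence after lysis; EC50 from sigmoidal dose-response fit.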

[2] = target: T2, Rat CB1 (Rattus norvegicus, UniProt P20272); assay: rat CB1 cyclase functional assay (HitHunter cAMP); format: cell-based; details: Rat CB1 cyclase (EC50, nM), HEK cells, forskolin 37 μM
T2 construct: expressed in transfected cells; host or cells: HEK
T2 sequence (P20272 whole entry): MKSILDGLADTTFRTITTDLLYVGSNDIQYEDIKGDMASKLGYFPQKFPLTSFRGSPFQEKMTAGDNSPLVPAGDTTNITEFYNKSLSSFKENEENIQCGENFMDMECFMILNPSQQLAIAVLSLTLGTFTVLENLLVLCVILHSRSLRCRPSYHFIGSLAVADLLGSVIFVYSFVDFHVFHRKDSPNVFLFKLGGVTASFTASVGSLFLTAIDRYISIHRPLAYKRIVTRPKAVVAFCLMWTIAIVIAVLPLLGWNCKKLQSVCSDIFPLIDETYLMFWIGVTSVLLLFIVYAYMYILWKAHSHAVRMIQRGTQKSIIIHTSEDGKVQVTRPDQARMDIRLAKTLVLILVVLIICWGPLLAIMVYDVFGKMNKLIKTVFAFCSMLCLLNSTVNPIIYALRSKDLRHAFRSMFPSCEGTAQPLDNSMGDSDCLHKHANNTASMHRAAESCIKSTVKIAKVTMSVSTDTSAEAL
Procedure, shortened: as §1

[3] = target: T1, rat CB2; assay: rat CB2 radioligand binding assay ([3H]CP 55,940 competition); set-up: expressed in transfected cells; host or cells: HEK293; details: rat CB2 (Ki, nM), HEK293 membranes, 0.5 nM [3H]CP 55,940
Procedure, shortened: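 Competition binding against 0.5 nM [3H]CP 55,940 (pH 7.4 buffer with 0.5 mg/mL BSA, 30 °C, 45 min), with displacers spanning 0.01 nM–10 μM at five concentrations. Receptor source: stably transfected HEK293 membranes, 20 μg/well. Nonspecific binding defined by 10 μM unlabeled CP 55,940; readout by filtration and counting.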

[4] = pharmacokinetic studies in rats; details: male, Sprague-Dawley, rat, in vivo; for clearance / half-life: iv, 3 micromole/kg; for bioavailability: po, 10 micromole/kg
Procedure: Male Sprague-Dawley rats, weighing 250-400 g, were obtained from Charles Rivers Laboratories. Pharmacokinetic studies were conducted in three groups of rats; each group contained three animals. All groups were dosed with a solution formulation. The first group of three rats received an intravenous dose, administered under isoflurane anesthetic. The second group received an intraperitoneal dose and the third group received an oral dose, administered by gavage. Sequential blood samples were obtained from a tail vein of each animal for 8-24 hours after dosing. Plasma was separated by centrifugation and stored frozen until analysis.
Half life […] and plasma clearance values are based on intravenous administration (3 micromole/kg).
Half life (t1/2) and plasma clearance values are based on intravenous administration (3 micromole/kg).

[5] = target: T3, human CB2 receptors (Homo sapiens, UniProt P34972); assay: human CB2 radioligand binding assay ([3H]CP 55,940 competition); details: human CB2 (Ki, nM), HEK293 membranes, 0.5 nM [3H]CP 55,940
T3 construct: expressed in transfected cells; host or cells: HEK293
T3 sequence (P34972 whole entry): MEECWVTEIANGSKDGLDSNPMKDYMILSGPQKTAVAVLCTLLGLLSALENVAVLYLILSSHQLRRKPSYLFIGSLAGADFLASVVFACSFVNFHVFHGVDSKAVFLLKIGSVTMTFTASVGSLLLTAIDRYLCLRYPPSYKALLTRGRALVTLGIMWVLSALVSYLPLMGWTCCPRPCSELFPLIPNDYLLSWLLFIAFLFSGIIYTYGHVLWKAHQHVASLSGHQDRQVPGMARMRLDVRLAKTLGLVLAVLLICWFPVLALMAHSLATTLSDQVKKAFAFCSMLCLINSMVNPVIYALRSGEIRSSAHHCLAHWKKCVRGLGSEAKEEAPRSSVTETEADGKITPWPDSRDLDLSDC
Procedure, shortened: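 Displacement of 0.5 nM [3H]CP 55,940 over 0.01 nM-10 μM test compound, measured on human CB2 membranes from stably transfected HEK293 cells. Incubation 90 min at 30 °C in Tris/EDTA/MgCl2/BSA, pH 7.4, then filter-bound radioactivity counted; 10 μM unlabeled CP 55,940 defined nonspecific binding.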

Row | SMILES | EC50 [1] [nM] | EC50 [2] [nM] | Ki [3] [nM] | clearance [4] [mL/min/kg] | half-life [4] [h] | bioavailability [4] [%] | Ki [5] [nM]
1 | Cn1c(C(C)(C)C)c/c(=N\C(=O)c2cc(C(F)(F)F)ccc2OCC(C)(C)O)n1C[C@H]1CCCO1 [Example 5, N-{(3E)-5-tert-butyl-1-methyl-2-[(2R)-tetrahydrofuran-2-ylmethyl]-1,2-dihydro-3H-pyrazol-3-ylidene}-2-(2-hydroxy-2-methylpropoxy)-5-(trifluoromethyl)benzamide] | 0.22 | 7690 | 5.5 | 18.3 | 2.1 | 37 | 10
2 | Cn1c(C(C)(C)C)c/c(=N\C(=O)c2cc(C(F)(F)F)ccc2OCCC(C)(C)O)n1C[C@H]1CCCO1 [Example 20, N-{(3E)-5-tert-butyl-1-methyl-2-[(2R)-tetrahydrofuran-2-ylmethyl]-1,2-dihydro-3H-pyrazol-3-ylidene}-2-(3-hydroxy-3-methylbutoxy)-5-(trifluoromethyl)benzamide] | 0.57 | 6850 | 11 | 13.3 | 3.9 | 27 | 35
3 | Cn1c(C(C)(C)C)c/c(=N\C(=O)c2cc(C(F)(F)F)ccc2OCCC(C)(C)O)n1CC1CC1 [Example 51, N-[(3E)-5-tert-butyl-2-(cyclopropylmethyl)-1-methyl-1,2-dihydro-3H-pyrazol-3-ylidene]-2-(3-hydroxy-3-methylbutoxy)-5-(trifluoromethyl)benzamide] | 0.46 | > 27000 | 15 | 8.33 | 3.2 | 52 | 80
4 | Cn1c(C(C)(C)C)c/c(=N\C(=O)c2cc(C(F)(F)F)ccc2OC[C@@H]2CCCN2)n1C[C@H]1CCCO1 [Example 62, N-{(3E)-5-tert-butyl-1-methyl-2-[(2R)-tetrahydrofuran-2-ylmethyl]-1,2-dihydro-3 H-pyrazol-3-ylidene}-2-[(2S)-pyrrolidin-2-ylmethoxy]-5-(trifluoromethyl)benzamide] | 0.28 | > 27000 | 21 | – | – | – | 82
5 | Cn1c(C(C)(C)C)c/c(=N\C(=O)c2cc(C(F)(F)F)ccc2OC[C@@H]2CCN2S(C)(=O)=O)n1CC1CC1 [Example 63, N-[(3E)-5-tert-butyl-2-(cyclopropylmethyl)-1-methyl-1,2-dihydro-3H-pyrazol-3-ylidene]-2-{[(2S)-1-(methylsulfonyl)azetidin-2-yl]methoxy}-5-(trifluoromethyl)benzamide] | 2.5 | > 27000 | 139 | – | – | – | 301
6 | Cn1c(C2(C)CC2)c/c(=N\C(=O)c2cc(C(F)(F)F)ccc2OCCC(C)(C)O)n1C[C@H]1CCCO1 [Example 68, 2-(3-hydroxy-3-methylbutoxy)-N-{(3E)-1-methyl-5-(1-methylcyclopropyl)-2-[(2 R)-tetrahydrofuran-2-ylmethyl]-1,2-dihydro-3H-pyrazol-3-ylidene}-5-(trifluoromethyl)benzamide] | 0.2 | > 27000 | 13 | 40 | 2.2 | 25 | 77
7 | Cn1c(C2(C)CC2)c/c(=N\C(=O)c2cc(C(F)(F)F)ccc2OCC(C)(C)O)n1C[C@H]1CCCO1 [Example 70, 2-(2-hydroxy-2-methylpropoxy)-N-{(3E)-1-methyl-5-(1-methylcyclopropyl)-2-[(2 R)-tetrahydrofuran-2-ylmethyl]-1,2-dihydro-3H-pyrazol-3-ylidene}-5-(trifluoromethyl)benzamide] | 0.47 | > 27000 | 4.4 | 30 | 2.3 | 46 | 27
8 | CN1CC[C@H]1COc1ccc(C(F)(F)F)cc1C(=O)/N=c1\oc(C(C)(C)C)cn1C[C@H]1CCCO1 [Example 74, N-[(2Z)-5-tert-butyl-3-[(2R)-tetrahydrofuran-2-ylmethyl]-1,3-oxazol-2(3 H)-ylidene]-2-{[(2S)-1-methylazetidin-2-yl]methoxy}-5-(trifluoromethyl)benzamide] | 0.42 | 3350 | 96 | – | – | – | 188
9 | CN1CCC[C@H]1COc1ccc(C(F)(F)F)cc1C(=O)/N=c1\oc(C(C)(C)C)cn1CC1CCC1 [Example 75] | 0.19 | 1360 | 44 | – | – | – | 42
10 | CC(C)(C)c1cn(C[C@H]2CCCO2)/c(=N/C(=O)c2cc(C(F)(F)F)ccc2OCCN2CCCC2)o1 [Example 77, N-[(2Z)-5-tert-butyl-3-[(2R)-tetrahydrofuran-2-ylmethyl]-1,3-oxazol-2(3 H)-ylidene]-2-(2-pyrrolidin-1-ylethoxy)-5-(trifluoromethyl)benzamide] | 0.1 | 2560 | 73 | – | – | – | 96
11 | CC(=O)NCCOc1ccc(C(F)(F)F)cc1C(=O)/N=c1\cc(C(C)(C)C)n(C)n1C[C@H]1CCCO1 [Example 78, 2-[2-(acetylamino)ethoxy]-N-{(3E)-5-tert-butyl-1-methyl-2-[(2R)-tetrahydrofuran-2-ylmethyl]-1,2-dihydro-3H-pyrazol-3-ylidene}-5-(trifluoromethyl)benzamide] | 1.9 | 8880 | 18 | – | – | – | 15
12 | CCCCn1/c(=N/C(=O)c2cc(C(F)(F)F)ccc2OCC(C)(C)O)cc(C(C)(C)C)n1C [Example 81, N-[(3E)-2-butyl-5-tert-butyl-1-methyl-1,2-dihydro-3H-pyrazol-3-ylidene]-2-(2-hydroxy-2-methylpropoxy)-5-(trifluoromethyl)benzamide] | 0.5 | 3360 | 25 | 3.33 | 5 | 61 | 44
13 | Cn1c(C(C)(C)C)c/c(=N\C(=O)c2cc(C(F)(F)F)ccc2OCC(C)(C)O)n1CC1CCC1 [Example 86, N-[(3E)-5-tert-butyl-2-(cyclobutylmethyl)-1-methyl-1,2-dihydro-3H-pyrazol-3-ylidene]-2-(2-hydroxy-2-methylpropoxy)-5-(trifluoromethyl)benzamide] | 0.23 | 4020 | 4.3 | 5 | 5.4 | 50 | 8.3
14 | Cn1c(C(C)(C)C)c/c(=N\C(=O)c2cc(C(F)(F)F)ccc2OCC(C)(C)O)n1CCC(F)(F)F [Example 87, N-[(3E)-5-tert-butyl-1-methyl-2-(3,3,3-trifluoropropyl)-1,2-dihydro-3H-pyrazol-3-ylidene]-2-(2-hydroxy-2-methylpropoxy)-5-(trifluoromethyl)benzamide] | 0.25 | 3110 | 7.6 | 5 | 3.2 | 64 | 18
15 | Cn1c(C(C)(C)C)c/c(=N\C(=O)c2cc(C(F)(F)F)ccc2OC[C@@H]2CCCCN2)n1C[C@H]1CCCO1 [Example 88, N-{(3E)-5-tert-butyl-1-methyl-2-[(2R)-tetrahydrofuran-2-ylmethyl]-1,2-dihydro-3 H-pyrazol-3-ylidene}-2-[(2S)-piperidin-2-ylmethoxy]-5-(trifluoromethyl)benzamide] | 0.45 | 702 | 3.5 | – | – | – | 14
16 | Cn1c(C(C)(C)C)c/c(=N\C(=O)c2cc(Cl)ccc2OCC(C)(C)O)n1C[C@H]1CCCO1 [Example 89, N-{(3E)-5-tert-butyl-1-methyl-2-[(2R)-tetrahydrofuran-2-ylmethyl]-1,2-dihydro-3 H-pyrazol-3-ylidene}-5-chloro-2-(2-hydroxy-2-methylpropoxy)benzamide] | 0.61 | 2320 | 7.6 | 16.7 | 1.6 | 37 | 19
